The source of these data is ChEMBL document CHEMBL1671836, “Synthesis and Structure-Activity Relationships of Benzothienothiazepinone Inhibitors of Protein Kinase D” (ACS Med Chem Lett, 2011).

Active and inactive are the calls of the source. The rule behind the calls is not given here. Where only a bound is given, the exact number is not on record here.

Test [1] has as its target Serine/threonine-protein kinase PLK2 (Homo sapiens) (UniProt Q9NYY3). As to the kind of experiment: Inhibition of PLK2 at < 10 uM by TR-FRET assay.
Test [2] addresses Protein kinase C alpha type (Homo sapiens) (UniProt P17252). The experiment in a line: Inhibition of human recombinant PKCalpha at < 10 uM after 10 mins by radiometric assay.
Test [3] concerns the target Calcium/calmodulin-dependent protein kinase type II subunit alpha (Homo sapiens) (UniProt Q9UQM7). As to the kind of experiment: Inhibition of human recombinant CAMK2alpha at < 10 uM after 10 mins by radiometric assay.
Test [4] addresses Cyclin-dependent kinase 7 (Homo sapiens) (UniProt P50613). As to the kind of experiment: Inhibition of CDK7 at < 10 uM by TR-FRET assay. (In general: In TR-FRET formats the signal depends on donor and acceptor labels being close together.)
The target in test [5] is Protein kinase C delta type (Homo sapiens) (UniProt Q05655). The experiment in a line: Inhibition of human recombinant PKCdelta at < 10 uM after 10 mins by radiometric assay.
The target in test [6] is RAC-alpha serine/threonine-protein kinase (Homo sapiens) (UniProt P31749). As to the kind of experiment: Inhibition of AKT at < 10 uM by IMAP assay.
For test [7], the target named is Serine/threonine-protein kinase PLK1 (Homo sapiens) (UniProt P53350). As to the kind of experiment: Inhibition of PLK1 at < 10 uM by TR-FRET assay.
Test [8] concerns the target Protein kinase C beta type (Homo sapiens) (UniProt P05771). The experiment in a line: Inhibition of human recombinant PKCbeta1 at < 10 uM after 10 mins by radiometric assay.
Test [9] in a line: Inhibition of human recombinant PKD3 after 10 mins by radiometric assay.

Sequence of Protein kinase C delta type (Homo sapiens) (Q05655 whole entry, looked up): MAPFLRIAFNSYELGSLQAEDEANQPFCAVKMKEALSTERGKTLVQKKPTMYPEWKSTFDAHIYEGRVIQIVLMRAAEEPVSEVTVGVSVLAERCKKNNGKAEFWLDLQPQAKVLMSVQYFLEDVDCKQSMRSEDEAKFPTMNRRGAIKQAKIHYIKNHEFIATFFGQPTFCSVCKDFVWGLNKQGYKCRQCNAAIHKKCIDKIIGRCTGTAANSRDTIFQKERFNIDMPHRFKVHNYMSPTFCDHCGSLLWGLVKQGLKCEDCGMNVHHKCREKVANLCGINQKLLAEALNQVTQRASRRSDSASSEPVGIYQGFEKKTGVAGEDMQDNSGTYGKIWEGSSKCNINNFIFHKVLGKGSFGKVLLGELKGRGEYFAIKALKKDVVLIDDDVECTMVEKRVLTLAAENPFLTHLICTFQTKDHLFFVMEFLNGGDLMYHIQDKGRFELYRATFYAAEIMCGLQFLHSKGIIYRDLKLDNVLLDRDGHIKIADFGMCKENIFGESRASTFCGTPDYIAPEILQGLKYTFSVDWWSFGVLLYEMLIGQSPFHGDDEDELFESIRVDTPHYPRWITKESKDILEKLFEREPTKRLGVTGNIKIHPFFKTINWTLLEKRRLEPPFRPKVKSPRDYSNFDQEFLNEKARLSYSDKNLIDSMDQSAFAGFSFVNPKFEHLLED
Sequence of Calcium/calmodulin-dependent protein kinase type II subunit alpha (Homo sapiens) (Q9UQM7 whole entry): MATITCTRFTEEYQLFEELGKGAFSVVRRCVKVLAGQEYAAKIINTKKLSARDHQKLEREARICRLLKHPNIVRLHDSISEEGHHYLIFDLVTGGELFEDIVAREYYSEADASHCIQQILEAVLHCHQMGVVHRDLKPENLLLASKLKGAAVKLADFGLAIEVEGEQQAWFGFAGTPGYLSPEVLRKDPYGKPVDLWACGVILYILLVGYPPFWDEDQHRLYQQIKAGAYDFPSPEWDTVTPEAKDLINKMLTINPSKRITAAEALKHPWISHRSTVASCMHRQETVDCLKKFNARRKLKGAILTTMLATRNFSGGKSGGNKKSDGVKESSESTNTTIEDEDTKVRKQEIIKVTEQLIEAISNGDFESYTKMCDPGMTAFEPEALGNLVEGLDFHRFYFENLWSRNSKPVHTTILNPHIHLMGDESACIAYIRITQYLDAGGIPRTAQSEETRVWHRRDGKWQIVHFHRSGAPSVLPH
Sequence of RAC-alpha serine/threonine-protein kinase (Homo sapiens) (P31749 whole entry): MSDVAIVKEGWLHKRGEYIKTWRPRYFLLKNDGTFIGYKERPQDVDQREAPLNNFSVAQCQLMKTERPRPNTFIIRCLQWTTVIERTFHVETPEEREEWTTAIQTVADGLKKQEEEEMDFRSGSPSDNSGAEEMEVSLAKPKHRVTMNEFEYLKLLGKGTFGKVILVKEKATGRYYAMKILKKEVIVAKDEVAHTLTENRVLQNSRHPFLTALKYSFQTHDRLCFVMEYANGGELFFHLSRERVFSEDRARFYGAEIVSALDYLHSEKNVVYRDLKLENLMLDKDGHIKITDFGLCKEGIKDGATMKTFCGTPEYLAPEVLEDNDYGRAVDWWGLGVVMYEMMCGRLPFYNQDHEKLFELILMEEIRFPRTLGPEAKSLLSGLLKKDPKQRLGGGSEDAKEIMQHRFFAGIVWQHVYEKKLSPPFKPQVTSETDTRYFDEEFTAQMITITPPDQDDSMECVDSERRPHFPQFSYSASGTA
Sequence of Serine/threonine-protein kinase PLK2 (Homo sapiens) (Q9NYY3 whole entry, looked up): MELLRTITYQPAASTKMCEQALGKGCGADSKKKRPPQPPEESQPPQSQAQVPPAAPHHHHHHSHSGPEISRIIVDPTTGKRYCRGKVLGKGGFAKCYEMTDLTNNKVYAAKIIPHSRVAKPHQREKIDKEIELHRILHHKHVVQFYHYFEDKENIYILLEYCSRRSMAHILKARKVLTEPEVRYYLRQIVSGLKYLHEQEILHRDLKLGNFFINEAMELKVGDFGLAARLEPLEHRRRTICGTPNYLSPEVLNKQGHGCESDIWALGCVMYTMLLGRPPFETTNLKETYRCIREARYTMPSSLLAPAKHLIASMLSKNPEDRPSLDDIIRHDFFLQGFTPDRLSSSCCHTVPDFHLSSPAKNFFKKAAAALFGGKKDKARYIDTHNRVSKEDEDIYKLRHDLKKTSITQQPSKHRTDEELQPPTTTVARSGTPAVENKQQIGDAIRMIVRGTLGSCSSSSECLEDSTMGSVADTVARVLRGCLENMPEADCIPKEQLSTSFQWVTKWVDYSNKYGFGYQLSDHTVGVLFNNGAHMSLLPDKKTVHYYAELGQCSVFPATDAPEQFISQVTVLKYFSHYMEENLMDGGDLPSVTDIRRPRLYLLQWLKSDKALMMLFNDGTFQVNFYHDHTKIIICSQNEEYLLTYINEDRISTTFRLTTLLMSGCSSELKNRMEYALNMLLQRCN
Sequence of Protein kinase C beta type (Homo sapiens) (P05771 2-671 limits assumed): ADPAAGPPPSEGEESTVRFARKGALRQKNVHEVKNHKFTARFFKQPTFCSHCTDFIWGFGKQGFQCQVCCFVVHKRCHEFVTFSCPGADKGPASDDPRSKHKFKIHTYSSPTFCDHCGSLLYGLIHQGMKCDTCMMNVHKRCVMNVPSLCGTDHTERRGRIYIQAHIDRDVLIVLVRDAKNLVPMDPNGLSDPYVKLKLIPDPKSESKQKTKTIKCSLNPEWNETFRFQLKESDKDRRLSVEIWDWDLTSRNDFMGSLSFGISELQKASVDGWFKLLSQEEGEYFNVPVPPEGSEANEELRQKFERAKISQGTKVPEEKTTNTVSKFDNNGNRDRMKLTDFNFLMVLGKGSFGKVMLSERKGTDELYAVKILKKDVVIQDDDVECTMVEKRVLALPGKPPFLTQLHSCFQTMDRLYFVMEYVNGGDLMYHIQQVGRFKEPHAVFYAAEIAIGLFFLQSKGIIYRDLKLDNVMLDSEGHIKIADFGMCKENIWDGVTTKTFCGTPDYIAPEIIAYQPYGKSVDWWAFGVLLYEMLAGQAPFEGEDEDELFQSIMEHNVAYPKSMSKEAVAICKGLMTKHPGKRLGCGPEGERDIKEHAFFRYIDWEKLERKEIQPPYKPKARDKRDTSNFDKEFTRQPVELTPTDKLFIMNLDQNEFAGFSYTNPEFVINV
Sequence of Serine/threonine-protein kinase PLK1 (Homo sapiens) (P53350 whole entry): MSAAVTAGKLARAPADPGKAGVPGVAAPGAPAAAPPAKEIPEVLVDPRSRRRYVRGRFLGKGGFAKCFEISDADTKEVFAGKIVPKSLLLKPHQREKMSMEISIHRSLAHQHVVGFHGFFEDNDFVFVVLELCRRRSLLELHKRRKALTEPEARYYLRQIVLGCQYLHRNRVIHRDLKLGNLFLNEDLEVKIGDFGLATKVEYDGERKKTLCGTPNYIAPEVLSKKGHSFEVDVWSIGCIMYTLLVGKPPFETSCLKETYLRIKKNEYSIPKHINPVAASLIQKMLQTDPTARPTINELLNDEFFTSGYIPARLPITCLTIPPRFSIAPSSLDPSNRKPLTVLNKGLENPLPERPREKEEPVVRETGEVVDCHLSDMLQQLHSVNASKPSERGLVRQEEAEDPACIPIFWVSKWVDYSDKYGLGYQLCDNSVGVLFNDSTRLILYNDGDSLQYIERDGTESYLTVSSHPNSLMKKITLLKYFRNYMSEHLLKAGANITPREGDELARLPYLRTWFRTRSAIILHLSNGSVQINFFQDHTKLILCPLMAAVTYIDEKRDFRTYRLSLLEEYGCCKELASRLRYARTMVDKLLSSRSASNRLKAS
Sequence of Cyclin-dependent kinase 7 (Homo sapiens) (P50613 whole entry): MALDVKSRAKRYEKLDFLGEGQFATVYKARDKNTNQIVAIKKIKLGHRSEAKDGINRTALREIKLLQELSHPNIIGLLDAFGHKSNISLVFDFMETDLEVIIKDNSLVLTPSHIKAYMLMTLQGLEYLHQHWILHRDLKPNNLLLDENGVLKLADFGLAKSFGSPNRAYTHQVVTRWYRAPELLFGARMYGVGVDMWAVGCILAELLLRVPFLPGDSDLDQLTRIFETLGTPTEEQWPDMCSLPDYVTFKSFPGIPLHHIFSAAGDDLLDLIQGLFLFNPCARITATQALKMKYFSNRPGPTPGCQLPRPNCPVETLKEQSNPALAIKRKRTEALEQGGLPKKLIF

Usually inhibition stands for the drop in the measured response relative to a control, in per cent. With `COc1ccc2sc3c(c2c1)SCCCNC3=O`, the inhibition result in test [1], in [2], in [3], in test [4], in test [5] and in test [6] was “inactive” in each case. Besides, the inhibition result in [7] and in test [8] was “inactive” in each case.
Regarding `O=C1NCCCSc2c1sc1ccc(O)cc21`, the inhibition result in [1], in [2], in test [3], in test [4], in [5] and in test [6] was “inactive” each time. In addition, the inhibition result in test [7] and in test [8] was “inactive” throughout.
As usually defined, the IC50 is the midpoint of a concentration-inhibition curve. Turning to `COc1ncc2sc3c(c2n1)SCCNC3=O`, the inhibition entry in test [1], in [2], in [3], in test [4], in [5] and in test [6] was “inactive” throughout. Moreover, the inhibition entry in [7] and in [8] was “inactive” throughout. Further, the IC50 in test [9] turned out to be 50 nM.
As for `O=C1NCCSc2c1sc1ccc(O)cc21`, the inhibition entry in test [1], in [2], in test [3], in test [4], in test [5] and in [6] was “inactive” in each case. Besides, the inhibition entry in test [7] and in [8] was “inactive” throughout.
On to `COc1ccc2sc3c(c2c1)SCCNC3=O`, for which the inhibition result in test [1], in test [2], in test [3], in [4], in [5] and in test [6] was “inactive” throughout. In addition, the inhibition result in test [7] and in test [8] was “inactive” each time.
`[N-]=[N+]=Nc1ccc2sc3c(c2c1)SCCNC3=O`: the inhibition entry in test [1], in test [2], in test [4], in test [5], in test [6] and in [7] was “inactive” in each case. Besides, in test [8], the inhibition entry is “inactive”. For the same compound, the inhibition in test [3] is below 40%.
On to `O=C1NCCCc2c1[nH]c1ccc(O)cc21`, for which the inhibition result in [1], in test [2], in test [4], in [5], in test [6] and in test [7] was “inactive” each time. Besides, in test [8], the inhibition result was “inactive”. In test [3], the inhibition was below 40%.
For the compound `O=C1NCCCc2c1oc1ccc(O)cc21`, the inhibition result in [1], in test [2], in test [3], in test [4], in test [5] and in test [6] was “inactive” in each case. Further, the inhibition entry in test [7] and in test [8] was “inactive” each time.
